From US11344574B2, “Fluoro substituted porphyrin compounds, pharmaceutical compositions comprising the same, and methods of preparing and using the same” (Duke University, priority 2017, dated 2022)
“Also recorded” adds a separate entry of the source.

Experiments:
[1] = Metal-centered reduction potential for the Mn^IIIP/Mn^IIP redox couple; assay type: physicochemical; details: vs normal hydrogen electrode
[2] = Lipophilicity by TLC retention factor Rf on silica; assay type: physicochemical; details: vs two non-fluorinated lipophilic analogs
From the text: Fluorination enhances the lipophilicity of MnPs as described with TLC retention factor, Rf (compound path/solvent path). Rf was obtained on silica gel plates using acetonitrile:KNO3(sat):water=8:1:1 as previously described (Tovmasyan A, Carballal S, Ghazaryan R, Melikyan L, Weitner T, Maia C G, Reboucas J S, Radi R, Spasojevic I, Benov L, and Batinic-Haberle I. Rational Design of Superoxide Dismutase (SOD) Mimics: The Evaluation of the Therapeutic Potential of New Cationic Mn Porphyrins with Linear and Cyclic Substituents. Inorg Chem 53: 11467-83, 2014).
In some embodiments, the fluoro-substituted porphyrins of the present invention may have enhanced lipophilicity (e.g., compared to non-fluoro-substituted porphyrins). Lipophilicity can be measured via thin layer chromatography. The relative lipophilicity of a group of compounds can be determined in a given solvent system. […] The fluoro-substituted porphyrins of the present invention suitably have a lipophilicity of greater than zero in a solvent system of acetonitrile:water:KNO3 (saturated aqueous) (8:1:1). Alternatively, the lipophilicity may be quantified by the standard octanol/water partition coefficient (log P). In some embodiments, the lipophilic fluoro-substituted porphyrins may have a greater bioavailability than their hydrophilic analogs. […]

[3] = SOD mimicking: catalysis of O2.^− dismutation; assay type: biochemical; details: ability to mimic SOD enzyme in catalysis of O2.^− dismutation
[4] = tested on: 4T1 breast tumor; experiment: Mouse flank 4T1 tumor radio- and chemosensitization study, MnP 0.2 mg/kg; assay type: in vivo; details: triple combination MnP 0.2 mg/kg sc + ascorbate + radiation, listed as MnTF3Pen-2-PyP^5+
Protocol: Female Balb/c mice were injected subcutaneously (on flank) with 1 million cells. […] 24 hours after the first injection of Mn porphyrins the radiation started at 2.5 Gy per day for 3 days. Fractionated radiation regime was used to better reflect the clinical scenario. […] Injection of drugs was continued daily. Once the study was completed when mice reached on average 2000 mm^3 volume, the mice were sacrificed, and tumors, normal muscle from opposite leg and liver were collected and levels of Mn porphyrins analyzed by LCMS/MS.

[5] = tested on: wild strain E. coli; experiment: Toxicity by aerobic growth of wild strain E. coli; assay type: cell-based; details: vs MnTnHex-2-PyP^5+ and MnTnBuOE-2-PyP^5+
Protocol: Herein we explored the member of a new class of Mn porphyrin-based therapeutics, MnTF3Pen-2-PyP^5+ (MnTF3Pen, Mn4) (FIG. 1). We have maintained major structural properties that support the redox-activity of MnPs, yet modified peripheral substituents by introducing polar fluorine atoms. […] The properties of Mn porphyrins (given in arbitrary units) which cumulatively define their therapeutic index: SOD-like activities, lipophilicities and toxicities. […] Toxicities are evaluated based on the aerobic growth of wild strain E. coli—a simple but accurate assay used for over 2 decades to identify the compounds with clinical potential.

[6] = Maximal tolerable dose (MTD) studies; assay type: in vivo, rats; details: subcutaneous
Protocol: The dose we identified as entirely safe was then given for 2 weeks. […] A dose above 0.5 mg/kg of MnTF3Pen-2-PyP^5+ seems to impose some toxicity expressed as hypotonia and reluctance to ambulate. We have thus decided to continue with 0.5 mg/kg which appears as safe non-toxic MTD dose for multiple dosing.

[7] = Pharmacokinetic studies in plasma and organs, 1 mg/kg; assay type: in vivo, rats; details: for Cmax: male, rat
Protocol: Whenever possible, the PK profiles of MnF3Pen were compared to MnTnBuOE-2-PyP^5+ (MnBuOE, Mn2), the drug presently in two clinical trials.
3 rats were used per time point. The following time points were tested: 30 min, 1, 2, 6, 24 hours, and 3 and 7 days. The tissues were taken after the rats were perfused with PBS to eliminate blood content of organs and, therefore its interference with blood content of organs. At 6 h, three additional rats were used to assess the effect of perfusion. In addition to plasma, the following organs were analyzed: liver, kidney, prostate, penis, testis, rectum, bladder, and brain. We have collected liver due to Mn porphyrins accumulating at the highest level in this organ; it then serves as a depot to maintain levels of drug in plasma and other organs. We also took the brain because toxicity of Mn porphyrins has been seen at that level present in the brain. Whenever possible the comparison with MnBuOE has been done. […] MnBuOE was used as internal standard.

[8] = Brain accumulation of MnPs with different administration routes; assay type: in vivo; details: route-dependent
From the text: MnF3Pen accumulates in the brain at levels which are (route-dependently) up to 50% lower than those of MnBuOE due to its more polar fluorine atoms.

[9] = tested on: radiation-induced erectile dysfunction; experiment: Radioprotection of erectile function after 20 Gy radiation; assay type: in vivo; details: rats, 0.5 mg/kg sc, single 20 Gy RT, with and without ascorbate, 9 weeks
Protocol: Mn4 administration started at 24 hours before RT. Mn4 was given at 0.5 mg/kg sc for the first four weeks daily (except for weekends) and then twice weekly for next five weeks. Single 20 Gy RT dose was given stereotactically.
10 rats per group were studied. MnF3Pen was given at 0.5 mg/kg sc for the first four weeks daily except for weekends, and then twice weekly for the next five weeks.
Single radiation dose of 20 Gy was delivered stereotactically, using image guided small animal radiator.
It was used at 0.1 mg/kg (at week 6 and 9).
Based on earlier studies, erectile dysfunction has been assessed at 9 weeks. […] Mn4 administration started at 24 hours before RT. Mn4 was given at 0.5 mg/kg sc for the first 4 weeks daily except for weekends, and then twice weekly for the next 5 weeks. Single 20 Gy RT dose was given.

[10] = tested on: prostate tissue; experiment: Radioprotection of prostate tissue, histopathology (H&E); details: for radioprotection of prostate tissue: rats, 0.5 mg/kg sc, single 20 Gy RT, 0.5 mg/kg
Protocol: Tissue was stained with H&E.
Mn4 administration started at 24 hours before RT. Mn4 was given at 0.5 mg/kg sc for the first 4 weeks daily except for weekends, and then twice weekly for the next 5 weeks. Single 20 Gy RT dose was given.
The tissues were preserved, half of them in formalin and another half snap-frozen for different analyses. Prostate is the only tissue directly radiated and the penile function was known to suffer radiation damage.

[11] = Toxicity in a rat and mouse study; assay type: in vivo
From the text: Also, such differences could not have been anticipated based just on the aqueous chemistry and diverse physical properties of those compounds. Such effects likely result from the differences in the polarities of those molecules: strongly polar character of 12 fluorine atoms relative to 4 polar oxygen atoms. […] Despite being equally lipophilic, a higher efficacy of MnTF3Pen-2-PyP^5+ than MnTnBuOE-2-PyP^5+ was observed.

[12] = Ability of MnP to catalyze ascorbate oxidation, initial rates assessed spectrally; details: initial rate of ascorbate oxidation; 10 μM MnP, 1 mM Asc, aerobic, 25 °C, pH 7.8

FC(F)(F)CCCC[n+]1ccccc1C1=C2C=CC3=[N+]2[Mn]24[n]5c1ccc5C(c1cccc[n+]1CCCCC(F)(F)F)=C1C=CC(=[N+]12)C(c1cccc[n+]1CCCCC(F)(F)F)=c1ccc([n]14)=C3c1cccc[n+]1CCCCC(F)(F)F [Mn4, 5,10,15,20-tetra(Mn(III) 5′,5′,5′-trifluoropentylpyridinium-2-yl)porphinato pentachloride]
E1/2, mV vs NHE [1]: +288 mV | lipophilicity (in words) [2]: more lipophilic | log kcat (O2−^•) [3]: 7.48 | tumor growth inhibition [4]: larger tumor growth inhibition; also recorded: Strong tumor suppression | toxicity [5]: less toxic | MTD at 2 weeks ([6]; rat, in vivo, sc, safe non-toxic dose for multiple dosing): 0.5 mg/kg | dose imposing some toxicity (hypotonia, reluctance to ambulate) [6]: above 0.5 mg/kg | levels in the tissues of interest ([7]; 1 mg/kg): higher than 100 nM | tolerability ([7]; 1 mg/kg): well tolerated | accumulation in liver ([7]; 1 mg/kg, vs MnBuOE): lower accumulation in liver | plasma half-life ([7]; 1 mg/kg, vs MnBuOE): longer plasma half-life | levels in all tissues of interest ([7]; FIG. 11): above 0.1 μM | highest levels, liver ([7]; liver, FIG. 11): about 1 μM | Cmax ([7]; bladder, 1 mg/kg): 450 nM | Cmax ([7]; penis, 1 mg/kg): 250 nM | Cmax ([7]; prostate, 1 mg/kg): 150 nM | Cmax ([7]; rectum, 1 mg/kg): 105 nM | Cmax ([7]; testes, 1 mg/kg): 190 nM | brain levels lower than those of MnBuOE [8]: up to 50% | prevention of radiation-induced erectile dysfunction [9]: fully prevented radiation-induced erectile dysfunction | morphological findings, prostate glands ([10]; RT+Mn4+Asc group (heading printed twice)): Local glands presented few large bizarre nuclei, some cells showed enlarged irregular nucleus and obvious nucleolus | radioprotection of prostate tissue [10]: significant radioprotection of prostate tissue | radioprotection of prostate tissue ([10]; listed as MnTF3Pen-2-PyP^5+): suppresses radiation (RT) damage to prostate tissue | bladder and rectum pathology ([10]; with respect to control non-radiated tissues): no changes on bladder and rectum pathology | toxicity compared with MnTnBuOE-2-PyP^5+ [11]: less toxicity | v0(Asc oxid) [12]: 297 nM/s
